# Laboratory results: patent US8124778B2, “Tricyclic inhibitors of fatty acid amide hydrolase” (The Scripps Research Institute, priority 2007, dated 2012)
# Biological target: T1, purified recombinant rat FAAH (Rattus norvegicus, UniProt P97612)
# T1 construct: The truncated rat FAAH (rFAAH) was expressed in E. coli and purified as described; made in house; host or cells: E. coli
# T1 sequence (P97612 30-579 limits assumed): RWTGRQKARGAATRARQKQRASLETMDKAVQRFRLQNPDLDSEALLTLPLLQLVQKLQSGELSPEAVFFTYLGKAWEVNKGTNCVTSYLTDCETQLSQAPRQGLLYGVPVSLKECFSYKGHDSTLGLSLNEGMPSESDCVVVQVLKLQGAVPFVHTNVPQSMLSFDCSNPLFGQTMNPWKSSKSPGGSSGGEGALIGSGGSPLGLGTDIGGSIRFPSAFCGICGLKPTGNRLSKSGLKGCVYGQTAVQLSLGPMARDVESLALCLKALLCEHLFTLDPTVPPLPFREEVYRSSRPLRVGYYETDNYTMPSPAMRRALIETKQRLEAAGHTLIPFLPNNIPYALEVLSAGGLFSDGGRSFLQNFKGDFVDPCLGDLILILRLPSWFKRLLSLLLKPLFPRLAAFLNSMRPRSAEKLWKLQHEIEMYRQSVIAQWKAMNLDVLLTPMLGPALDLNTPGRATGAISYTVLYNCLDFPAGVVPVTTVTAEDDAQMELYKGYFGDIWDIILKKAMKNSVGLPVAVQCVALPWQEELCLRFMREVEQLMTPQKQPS
# Assay: FAAH inhibition enzyme assay (14C-oleamide hydrolysis, Dixon plot)
# Format: biochemical
# Conditions: rat FAAH
# Procedure: Enzyme assays were performed at 20-23° C. with purified recombinant rat FAAH expressed in E. coli (Patricelli, M. P.; Lashuel, H. A.; et al. Biochemistry 1998, 37, 15177-15187) (unless indicated otherwise) or with solubilized COS-7 membrane extracts from cells transiently transfected with human FAAH cDNA (Giang, D. K.; Cravatt, B. F. Proc. Natl. Acad. Sci. U.S.A. 1997, 94, 2238-2242) (where specifically indicated) in a buffer of 125 mM Tris/1 mM EDTA/0.2% glycerol/0.02% Triton X-100/0.4 mM Hepes, pH 9.0 buffer (Patricelli, M. P.; Patterson, J. P.; et al. Bioorg. Med. Chem. Lett. 1998, 8, 613-618). The initial rates of hydrolysis (≦10-20% reaction) were monitored using enzyme concentrations at least three times below the measured Ki by following the breakdown of ^14C-oleamide and Ki's (standard deviations are provided in Supporting Information tables) were established as described (Dixon plot) (Boger, D. L.; Sato, H.; et al. Proc. Natl. Acad. Sci. U.S.A. 2000, 97, 5044-5049). Lineweaver-Burk analysis previously established reversible, competitive inhibition (Boger, D. L.; Miyauchi, H.; et al. J. Med. Chem. 2005, 48, 1849-1856).
# FAAH Inhibition. ^14C-labeled oleamide was prepared from ^14C-labeled oleic acid as described (Cravatt, B. F.; et al. Science 1995, 268, 1506-1509). The truncated rat FAAH (rFAAH) was expressed in E. coli and purified as described (Patricelli, M. P.; Lashuel, H. A.; et al. Biochemistry 1998, 37, 15177-15187). The purified recombinant rFAAH was used in the inhibition assays unless otherwise indicated. The full-length human FAAH (hFAAH) was expressed in COS-7 cells as described (Giang, D. K.; Cravatt, B. F. Proc. Natl. Acad. Sci. U.S.A. 1997, 94, 2238-2242), and the lysate of hFAAH-transfected COS-7 cells was used in the inhibition assays where explicitly indicated.
# The inhibition assays were performed as described (Cravatt, B. F.; et al. Science 1995, 268, 1506-1509). In brief, the enzyme reaction was initiated by mixing 1 nM of rFAAH (800, 500, or 200 pM rFAAH for inhibitors with Ki≦1-2 nM) with 10 μM of ^14C-labeled oleamide in 500 μL of reaction buffer (125 mM TrisCl, 1 mM EDTA, 0.2% glycerol, 0.02% Triton X-100, 0.4 mM Hepes, pH 9.0) at room temperature in the presence of three different concentrations of inhibitor. The enzyme reaction was terminated by transferring 20 μL of the reaction mixture to 500 μL of 0.1 N HCl at three different time points. The ^14C-labeled oleamide (substrate) and oleic acid (product) were extracted with EtOAc and analyzed by TLC as detailed (Cravatt, B. F.; et al. Science 1995, 268, 1506-1509). The Ki of the inhibitor was calculated using a Dixon plot as described (standard deviations are provided in the Supporting Information tables) (Boger, D. L.; Sato, H.; et al. Proc. Natl. Acad. Sci. U.S.A. 2000, 97, 5044-5049). Lineweaver-Burk analysis was performed as described confirming competitive, reversible inhibition (Boger, D. L.; Miyauchi, H.; et al. J. Med. Chem. 2005, 48, 1849-1856).
row,Structure (SMILES),FAAH inhibitory potency (in words)
1,"O=C(CCCCCCc1cccs1)c1ncc(-c2ccccn2)o1 [5a, 1-Oxo-1-[5-(2-pyridyl)oxazol-2-yl]-7-(2-thienyl)heptane]",effective inhibitors
2,"O=C(CCCCCCc1cccc2ccccc12)c1ncc(-c2ccccn2)o1 [5c, 1-Oxo-1-[5-(2-pyridyl)oxazol-2-yl]-7-(1-naphthyl)heptane]",effective inhibitors
3,"O=C(CCCCCCc1ccsc1)c1ncc(-c2ccccn2)o1 [5b, 1-Oxo-1-[5-(2-pyridyl)oxazol-2-yl]-7-(3-thienyl)heptane]",effective inhibitors
4,"CCCCCCc1cccc(CCCCCCC(=O)c2ncc(-c3ccccn3)o2)c1 [5oo, 1-Oxo-1-[5-(2-pyridyl)oxazol-2-yl]-7-(3-hexylphenyl)heptane]",less effective
5,"O=C(CCCCCCc1ccc2ccccc2c1)c1ncc(-c2ccccn2)o1 [5d, 1-Oxo-1-[5-(2-pyridyl)oxazol-2-yl]-7-(2-naphthyl)heptane]",effective inhibitors
6,"CS(=O)(=O)c1cccc(CCCCCCC(=O)c2ncc(-c3ccccn3)o2)c1 [5ll, 1-Oxo-1-[5-(2-pyridyl)oxazol-2-yl]-7-(3-(methylsulfonyl)phenyl)heptane]",significant potency
7,"CCCCCCc1ccc(CCCCCCC(=O)c2ncc(-c3ccccn3)o2)cc1 [5nn, 1-Oxo-1-[5-(2-pyridyl)oxazol-2-yl]-7-(4-hexylphenyl)heptane]",significant potency

# The next lines start with the values.
row,FAAH inhibitory potency (in words),Structure (SMILES)
1,lower ability to inhibit FAAH,"O=C(CCC(=O)c1ncc(-c2ccccn2)o1)NCCc1ccccc1 [13a, 4-Oxo-N-phenethyl-4-(5-(pyridin-2-yl)oxazol-2-yl)butanamide]"
2,lower potency,"O=C(CCC(O)CCCc1ccccc1)c1ncc(-c2ccccn2)o1 (stereo not drawn) [13f, 4-Hydroxy-7-phenyl-1-(5-(pyridin-2-yl)oxazol-2-yl)heptan-1-one]"
3,significant potency,"O=C(CSCCCCc1ccccc1)c1ncc(-c2ccccn2)o1 [12b, 2-(4-Phenylbutylthio)-1-(5-(pyridin-2-yl)oxazol-2-yl)ethanone]"
4,loss of activity,"O=C(c1ncc(-c2ccccn2)o1)C1CCCC1 [14e, Cyclopentyl(5-(pyridin-2-yl)oxazol-2-yl)methanone]"
5,significant loss of inhibitory potency,"O=C(CCCCc1ccccc1)CC(=O)c1ncc(-c2ccccn2)o1 [14g, 7-Phenyl-1-(5-(pyridin-2-yl)oxazol-2-yl)heptane-1,3-dione]"
6,significant loss in potency,"O=C(CS(=O)(=O)CCCCc1ccccc1)c1ncc(-c2ccccn2)o1 [12d, 2-(4-Phenylbutylsulfonyl)-1-(5-(pyridin-2-yl)oxazol-2-yl)ethanone]"
7,significant potency,"O=C(CCCCCSc1ccccc1)c1ncc(-c2ccccn2)o1 [12p, 6-(Phenylthio)-1-(5-(pyridin-2-yl)oxazol-2-yl)hexan-1-one]"
8,significant potency,"O=C(CCCCSCc1ccccc1)c1ncc(-c2ccccn2)o1 [12k, 5-(Benzylthio)-1-(5-(pyridin-2-yl)oxazol-2-yl)pentan-1-one]"
9,substantial loss in inhibitory potency,"CN(CCCCc1ccccc1)CC(O)c1ncc(-c2ccccn2)o1 (stereo not drawn) [14i, 2-(Methyl(4-phenylbutyl)amino)-1-(5-(pyridin-2-yl)oxazol-2-yl)ethanol]"
10,submicromolar inhibitor of FAAH,"O=C(CCl)c1ncc(-c2ccccn2)o1 [14f, 2-Chloro-1-(5-(pyridin-2-yl)oxazol-2-yl)ethanone]"
11,substantial loss in inhibitory potency,"OC(CCCCc1ccccc1)CC(O)c1ncc(-c2ccccn2)o1 (stereo not drawn) [14h, 7-Phenyl-1-(5-(pyridin-2-yl)oxazol-2-yl)heptane-1,3-diol]"
12,loss of activity,"O=C(c1ncc(-c2ccccn2)o1)C1CC1 [14d, Cyclopropyl(5-(pyridin-2-yl)oxazol-2-yl)methanone]"

# Same assay, conditions: rat FAAH, o- and p-methylsulfone vs 5ll
row,fold less effective than m-methylsulfone 5ll,Structure (SMILES)
1,approximately 10 fold,"CS(=O)(=O)c1ccccc1CCCCCCC(=O)c1ncc(-c2ccccn2)o1 [5kk, 1-Oxo-1-[5-(2-pyridyl)oxazol-2-yl]-7-(2-(methylsulfonyl)phenyl)heptane]"
2,approximately 10 fold,"CS(=O)(=O)c1ccc(CCCCCCC(=O)c2ncc(-c3ccccn3)o2)cc1 [5mm, 1-Oxo-1-[5-(2-pyridyl)oxazol-2-yl]-7-(4-(methylsulfonyl)phenyl)heptane]"

# Same assay, conditions: recombinant rat FAAH, 14C-oleamide, pH 9.0, 20-23 °C
row,Structure (SMILES),Ki [nM]
1,"O=C(CCCCCCc1cccc2ccccc12)c1ncc(-c2ccccn2)o1 [5c, 1-Oxo-1-[5-(2-pyridyl)oxazol-2-yl]-7-(1-naphthyl)heptane]",2.6
2,"O=C(CCCCCCc1cccc(Cl)c1)c1ncc(-c2ccccn2)o1 [5hh, 1-Oxo-1-[5-(2-pyridyl)oxazol-2-yl]-7-(3-chlorophenyl)heptane]",0.9

# Now from value to compound:
row,Ki [nM],Structure (SMILES)
1,3,"O=C(CCCCCSc1ccccc1)c1ncc(-c2ccccn2)o1 [12p, 6-(Phenylthio)-1-(5-(pyridin-2-yl)oxazol-2-yl)hexan-1-one]"
2,8,"O=C(c1ncc(-c2ccccn2)o1)C(O)CCCCCc1ccccc1 (stereo not drawn) [13d, 2-Hydroxy-7-phenyl-1-(5-(pyridin-2-yl)oxazol-2-yl)heptan-1-one]"

# System: not given
# Assay: not given
# Conditions: not given
row,melting point [°C],Structure (SMILES)
1,50 to 51,"O=C(CCCCC#Cc1cccc(Cl)c1)c1ncc(-c2ccccn2)o1 [4hh, 1-Oxo-1-[5-(2-pyridyl)oxazol-2-yl]-7-(3-chlorophenyl)hept-6-yne]"
2,91 to 92,"O=C(CCCCCCc1cccc(Cl)c1)c1ncc(-c2ccccn2)o1 [5hh, 1-Oxo-1-[5-(2-pyridyl)oxazol-2-yl]-7-(3-chlorophenyl)heptane]"
